One test addresses KAT2A (Homo sapiens (Human), UniProt Q92830). Nature of the test: KAT2A acetyltransferase biochemical assay (RapidFire mass spectrometry, AcCoA to CoA). To be noted: KAT2A Ki at 1 μM AcCoA, 5 μM H3 1-21 peptide, 0.5 nM KAT2A, 90-minute reaction.
KAT2A, sequence (Q92830 whole entry): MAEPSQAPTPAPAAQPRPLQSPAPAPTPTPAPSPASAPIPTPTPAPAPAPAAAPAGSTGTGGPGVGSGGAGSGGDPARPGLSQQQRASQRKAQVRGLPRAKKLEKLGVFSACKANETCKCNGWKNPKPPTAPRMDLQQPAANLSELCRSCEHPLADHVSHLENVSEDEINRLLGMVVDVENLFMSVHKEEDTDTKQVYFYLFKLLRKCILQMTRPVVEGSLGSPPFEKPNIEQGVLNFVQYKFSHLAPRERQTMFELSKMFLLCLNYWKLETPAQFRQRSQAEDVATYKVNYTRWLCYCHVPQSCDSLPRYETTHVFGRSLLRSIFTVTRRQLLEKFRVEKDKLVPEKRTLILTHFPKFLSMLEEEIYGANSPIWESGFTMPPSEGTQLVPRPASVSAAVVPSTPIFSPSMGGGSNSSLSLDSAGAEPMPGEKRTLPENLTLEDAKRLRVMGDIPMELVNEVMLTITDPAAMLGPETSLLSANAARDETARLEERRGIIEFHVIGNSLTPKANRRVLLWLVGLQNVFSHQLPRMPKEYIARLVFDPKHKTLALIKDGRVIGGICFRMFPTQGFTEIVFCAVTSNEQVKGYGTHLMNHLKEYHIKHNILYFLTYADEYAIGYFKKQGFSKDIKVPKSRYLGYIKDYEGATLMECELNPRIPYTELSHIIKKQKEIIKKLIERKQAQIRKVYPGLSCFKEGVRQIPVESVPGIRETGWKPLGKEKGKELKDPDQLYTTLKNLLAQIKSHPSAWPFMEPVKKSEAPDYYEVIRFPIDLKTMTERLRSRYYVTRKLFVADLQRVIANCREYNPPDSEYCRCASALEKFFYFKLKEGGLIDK
As usually defined, the Ki is a dissociation constant, usually derived from enzyme kinetics or from competition with a known ligand. `Cc1cc(NS(C)(=O)=O)n(-c2ccc(O[C@@H]3CC[C@@H](NC(=O)[C@@]4(F)CNC5(CCC5)C4)C3)c(-c3cccc(F)c3C3CCC3)c2)n1` (single isomer, unassigned) [Example L2] came in with a Ki above 0.0999 µM. `CC(C)(C(=O)O)c1ccc(O[C@@H]2CC[C@@H](NC(=O)[C@]3(F)CNC4(CCC4)C3)C2)c(-c2cccc(F)c2C2CCC2)c1` [Example A2, 2-(2′-cyclobutyl-3′-fluoro-6-{[(1R,3R)-3-({[(7R)-7-fluoro-5-azaspiro[3.4]oct-7-yl]carbonyl}amino)cyclopentyl]oxy}biphenyl-3-yl)-2-methylpropanoic acid] registered a Ki of 2.75 µM.

Still in this test, the particulars now being: read-out: KAT2A Ki at 1 μM AcCoA, 5 μM H3 1-21 peptide, 0.5 nM KAT2A, 90-minute reaction.
Turning to `CCc1c(F)cccc1-c1cc([C@@H](C)C(=O)NS(=O)(=O)C2(C)CC2)ccc1O[C@@H]1CC[C@@H](NC(=O)[C@@]2(F)CNC3(CCCC3)C2)C1` (single isomer, unassigned) [Example C84], the Ki is above 0.0999 µM. With `CCc1c(F)cccc1-c1cc([C@@H](C)C(=O)NS(=O)(=O)C2(C)CC2)ccc1O[C@@H]1CC[C@@H](NC(=O)[C@@]2(F)CNC3(CCCC3)C2)C1` (single isomer, unassigned) [Example C86], the Ki was above 0.0999 µM. On the same count and under the same terms, for `CN1CC2(CCCC2)C[C@H]1C(=O)N[C@@H]1CC[C@@H](Oc2ccc(C(=O)O)cc2-c2ccccc2C2CCC2)C1` (single isomer, unassigned) [Example D8] the value was 0.926 µM.

For the molecule `C[C@H](C(=O)O)c1nn(C)cc1-c1ccc(O[C@@H]2CC[C@@H](NC(=O)[C@]3(F)CNC4(CCC4)C3)C2)c(-c2cccc(F)c2C2CCC2)c1` (single isomer, unassigned) [Example J3], the Ki was 0.842 µM. As to `CCn1cc(-c2ccc(O[C@@H]3CC[C@@H](NC(=O)[C@@]4(F)CNC5(CCC5)C4)C3)c(-c3cccc(F)c3C3CCC3)c2)c(C(=O)O)n1` (single isomer, unassigned) [Example J14], the Ki was determined as 0.284 µM.

These data come from patent US20250188030A1, “Biphenyl and Phenylpyridine Compounds” (Pfizer Inc., priority 2023, published 2025).
